Experimental data from PMC6061857 (2018).

What was measured:
[1] = test system: ATP-30 (DNA, aptamer) CGCACCTGGGGGAGTATTGCGGAGGAAGGT; assay: ITC, two-site sequential binding; settings: 10 mM Mg2+; 10 mM Tris, pH 7.4, 23 °C; site 1 of 2 (KD2 10.1 ± 0.3 μM)
[2] = test system: ATP-33 (DNA, aptamer) CGCACCTGGGGGAGTATTGCGGAGGAAGGTGCG; assay: ITC, two-site sequential binding; settings: 10 mM Mg2+; 10 mM Tris, pH 7.4, 23 °C; site 1 of 2 (KD2 12.3 ± 0.6 μM)
[3] = test system: 38-GT (DNA, aptamer) GGGAGACAAGGAAAATCCTTCAATGAAGTGGGTCTCCC; assay: ITC; settings: 10 mM Tris, pH 7.4, 23 °C
[4] = test system: 35-GT (DNA, aptamer) GGGAGACAAGGAAAATCCTTCAATGAAGTGGGTCT; assay: ITC; settings: 10 mM Tris, pH 7.4, 23 °C

SMILES	KD1 [1]	KD1 [2]	KD [3]	KD [4]
Nc1ncnc2c1ncn2[C@@H]1O[C@H](COP(=O)(O)OP(=O)(O)OP(=O)(O)O)[C@@H](O)[C@H]1O	0.8 ± 0.1 µM	0.6 ± 0.1 µM	–	–
COC(=O)[C@H]1[C@@H](OC(=O)c2ccccc2)C[C@@H]2CC[C@H]1N2C	–	–	1.6 ± 0.2 µM	12 ± 1.0 µM
